pIC50: −log10 of the molar value.
Test system: HT-29 cells
Assay: HT-29 necroptosis cell viability assay (TNF-α/SMAC mimetic/zVAD-FMK, CellTiter-Glo)
Type: cell-based
Conditions: Homo sapiens, HT-29, HT-29 cells, necroptosis induced by TNF-α/SMAC mimetic/zVAD-FMK, CellTiter-Glo; read-out: Activity (IC50 class)
How it was run: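 HT-29 cells (~5,000/well, overnight) in FBS-free McCoy's 5A with TNF-α 10 ng/ml, SMAC mimetic 6 μM and zVAD-FMK 10 μM plus 10-point 1:3 compound titration, 20 h at 37°C. ATP measured by CellTiter-Glo luminescence; IC50 as geometric mean of duplicates.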

Q: How did the pIC50 turn out when `Cc1nc(C(N)=O)sc1Oc1ncc(-n2ncn(Cc3c(F)cccc3F)c2=O)cc1F` [Example 643, 5-((5-(4-(2,6-difluorobenzyl)-5-oxo-4,5-dihydro-1H-1,2,4-triazol-1-yl)-3-fluoropyridin-2-yl)oxy)-4-methylthiazole-2-carboxamide] was run?
A: > 7.00

Q: How did the pIC50 turn out when `Cc1ncsc1Oc1ncc(-n2ncn(Cc3c(F)cccc3F)c2=O)cc1F` [Example 644, 4-(2,6-difluorobenzyl)-2-(5-fluoro-6-((4-methylthiazol-5-yl)oxy)pyridin-3-y1)-2,4-dihydro-3H-1,2,4-triazol-3-one] was run?
A: > 7.00

Q: How did the pIC50 turn out when `Cc1nc(Br)sc1Oc1ncc(-n2ncn(Cc3c(F)cccc3F)c2=O)cc1F` [Example 645, 2-(6-((2-bromo-4-methylthiazol-5-y1)oxy)-5-fluoropyridin-3-yl)-4-(2,6-difluorobenzyl)-2,4-dihydro-3H-1,2,4-triazol-3-one] was run?
A: > 7.00

Q: With `COC(=O)c1nc(C)c(Oc2ncc(-n3ncn(Cc4c(F)cccc4F)c3=O)cc2F)s1` [Example 646, methyl 5-((5-(4-(2,6-difluorobenzyl)-5-oxo-4,5-dihydro-1H-1,2,4-triazol-1-yl)-3-fluoropyridin-2-yl)oxy)-4-methylthiazole-2-carboxylate] as the molecule, how does the pIC50 read?
A: > 7.00

Q: `Cc1nc(C(N)=O)sc1Oc1ncc(-n2ncn(Cc3c(F)cccc3F)c2=O)cc1Cl` [Example 647, 5-((3-chloro-5-(4-(2,6-difluorobenzy1)-5-oxo-4,5-dihydro-1H-1,2,4-triazol-1-yl)pyridin-2-yl)oxy)-4-methylthiazole-2-carboxamide] was tested. Which pIC50 did it give?
A: > 7.00

Q: With `COC(=O)c1nc(C)c(Oc2ncc(-n3ncn(Cc4c(F)cccc4F)c3=O)cc2Cl)s1` [Example 649, methyl 5-((3-chloro-5-(4-(2,6-difluorobenzyl)-5-oxo-4,5-dihydro-1H-1,2,4-triazol-1-yl)pyridin-2-yl)oxy)-4-methylthiazole-2-carboxylate] as the molecule, how does the pIC50 read?
A: > 7.00

Q: `Cc1c(CC#N)noc1Oc1ccc(-n2ncn(Cc3c(F)cccc3F)c2=O)cc1F` [Example 650, 2-(5-(4-(4-(2,6-difluorobenzyl)-5-oxo-4,5-dihydro-1H-1,2,4-triazol-1-yl)-2-fluorophenoxy)-4-methylisoxazol-3-yl)acetonitrile] was tested. Which pIC50 did it give?
A: > 7.00

Q: `Cc1nc(C(N)C(F)(F)F)sc1Oc1ccc(-n2ncn(Cc3c(F)cccc3F)c2=O)cc1F` (centres unmarked) [Example 651, 2-(4-((2-(1-amino-2,2,2-trifluoroethyl)-4-methylthiazol-5-yl)oxy)-3-fluorophenyl)-4-(2,6-difluorobenzyl)-2,4-dihydro-3H-1,2,4-triazol-3-one] was tested. Which pIC50 did it give?
A: 6.00 to 7.00

Q: How did the pIC50 turn out when `Cc1nc(C#N)sc1Oc1ncc(-n2ncn(Cc3c(F)cccc3F)c2=O)cc1Cl` [Example 653, 5-[[3-chloro-5-[4-[(2,6-difluorophenyl)methyl]-5-oxo-1,2,4-triazol-1-yl]-2-pyridyl]oxy]-4-methyl-thiazole-2-carbonitrile] was run?
A: 6.00 to 7.00

Q: How did the pIC50 turn out when `CCOC(=O)c1nc(COc2ccc(-n3ncn(Cc4c(F)cccc4F)c3=O)cc2F)cs1` [Example 654, Ethyl 4-((4-(4-(2,6-difluorobenzyl)-5-oxo-4,5-dihydro-1H-1,2,4-triazol-1-yl)-2-fluorophenoxy)methyl)thiazole-2-carboxylate] was run?
A: 5.00 to 6.00

Q: With `N#CCc1nc(COc2ccc(-n3ncn(Cc4c(F)cccc4F)c3=O)cc2F)cs1` [Example 655, 2-[4-[[4-[4-[(2,6-difluorophenyl)methyl]-5-oxo-1,2,4-triazol-1-yl]-2-fluoro-phenoxy]methyl]thiazol-2-yl]acetonitrile] as the molecule, how does the pIC50 read?
A: 6.00 to 7.00

Q: How did the pIC50 turn out when `O=C1NC2(CO1)CN(c1cc(Oc3ccc(-n4ncn(Cc5c(F)cccc5F)c4=O)cc3F)c(F)cn1)C2` [Example 656, 2-[4-[4-[4-[(2,6-difluorophenyl)methyl]-5-oxo-1,2,4-triazol-1-yl]-2-fluoro-phenoxy]-5-fluoro-2-pyridyl]-7-oxa-2,5-diazaspiro[3.4]octan-6-one] was run?
A: > 7.00

Q: With `Cc1ncn(Cc2ccc(-n3ncn(Cc4c(F)cccc4F)c3=O)cc2)c1C#N` [Example 657, 3-[[4-[4-[(2,6-difluorophenyl)methyl]-5-oxo-1,2,4-triazol-1-yl]phenyl]methyl]-5-methyl-imidazole-4-carbonitrile] as the molecule, how does the pIC50 read?
A: > 7.00

Q: `O=c1n(Cc2c(F)cccc2F)cnn1-c1ccc(Oc2cncs2)cc1` [Example 658] was tested. Which pIC50 did it give?
A: > 7.00

Q: With `Nc1nc(COc2ccc(-n3ncn(Cc4c(F)cccc4F)c3=O)cc2F)cs1` [Example 659, 2-(4-((2-aminothiazol-4-yl)methoxy)-3-fluorophenyl)-4-(2,6-difluorobenzyl)-2,4-dihydro-3H-1,2,4-triazol-3-one] as the molecule, how does the pIC50 read?
A: 6.00 to 7.00

Q: How did the pIC50 turn out when `CC(C)(C)CNC(=O)c1cc(Oc2ccc(-n3ncn(Cc4c(F)cccc4F)c3=O)cc2)ccn1` [Example 660, 4-(4-(4-(2,6-difluorobenzyl)-5-oxo-4,5-dihydro-1H-1,2,4-triazol-1-yl)phenoxy)-N-neopentylpicolinamide] was run?
A: 6.00 to 7.00

Q: How did the pIC50 turn out when `COc1cc(Oc2ccc(-n3ncn(Cc4c(F)cccc4F)c3=O)cc2)ccn1` [Example 661, 4-(2,6-difluorobenzyl)-2-(4-((2-methoxypyridin-4-yl)oxy)phenyl)-2,4-dihydro-3H-1,2,4-triazol-3-one] was run?
A: 6.00 to 7.00

Q: With `O=c1n(Cc2c(F)cccc2F)cnn1-c1ccc(Oc2ccnc(Cl)c2)cc1` [Example 662, 2-(4-((2-chloropyridin-4-yl)oxy)phenyl)-4-(2,6-difluorobenzyl)-2,4-dihydro-3H-1,2,4-triazol-3-one] as the molecule, how does the pIC50 read?
A: 6.00 to 7.00

Q: How did the pIC50 turn out when `Cc1nc(Br)nn1Cc1ccc(-n2ncn(Cc3c(F)cccc3F)c2=O)cc1` [Example 663, 2-(4-((3-bromo-5-methyl-1H-1,2,4-triazol-1-yl)methyl)phenyl)-4-(2,6-difluorobenzyl)-2,4-dihydro-3H-1,2,4-triazol-3-one] was run?
A: 6.00 to 7.00

Q: `Cc1nc(N2CC(C)(C#N)C2)cn1Cc1ccc(-n2ncn(Cc3c(F)cccc3F)c2=O)cc1` [Example 664, 1-(1-(4-(4-(2,6-difluorobenzyl)-5-oxo-4,5-dihydro-1H-1,2,4-triazol-1-yl)benzyl)-2-methyl-1H-imidazol-4-yl)-3-methylazetidine-3-carbonitrile] was tested. Which pIC50 did it give?
A: 5.00 to 6.00

Q: `Cc1nc(N2CC(C)(C#N)C2)nn1Cc1ccc(-n2ncn(Cc3c(F)cccc3F)c2=O)cc1` [Example 665, 1-(1-(4-(4-(2,6-difluorobenzyl)-5-oxo-4,5-dihydro-1H-1,2,4-triazol-1-yl)benzyl)-5-methyl-1H-1,2,4-triazol-3-yl)-3-methylazetidine-3-carbonitrile] was tested. Which pIC50 did it give?
A: 5.00 to 6.00

Q: How did the pIC50 turn out when `Cc1nc(Br)cn1Cc1ccc(-n2ncn(Cc3c(F)cccc3F)c2=O)cc1` [Example 666, 2-(4-((4-bromo-2-methyl-1H-imidazol-1-yl)methyl)phenyl)-4-(2,6-difluorobenzyl)-2,4-dihydro-3H-1,2,4-triazol-3-one] was run?
A: > 7.00

Q: `Cc1nc(C(N)=O)sc1Oc1ccc(-n2nc3n(c2=O)C(c2ccc(F)cc2)CC3)cc1F` (centres unmarked) [Example 667, 5-(2-fluoro-4-(5-(4-fluorophenyl)-3-oxo-6,7-dihydro-3H-pyrrolo[1,2-c][1,2,4]triazol-2(5H)-yl)phenoxy)-4-methylthiazole-2-carboxamide] was tested. Which pIC50 did it give?
A: > 7.00

Q: `COc1cncc(Oc2ccc(-n3ncn(Cc4c(F)cccc4F)c3=O)cc2)c1` [Example 671, 4-(2,6-difluorobenzyl)-2-(4-((5-methoxypyridin-3-yl)oxy)phenyl)-2,4-dihydro-3H-1,2,4-triazol-3-one] was tested. Which pIC50 did it give?
A: > 7.00

Q: How did the pIC50 turn out when `O=c1n(Cc2c(F)cccc2F)cnn1-c1ccc(Oc2ccnc(N3CC4(CCOCC4)C3)c2F)cc1` [Example 672, 4-(2,6-difluorobenzyl)-2-(4-((3-fluoro-2-(7-oxa-2-azaspiro[3.5]nonan-2-yl)pyridin-4-yl)oxy)phenyl)-2,4-dihydro-3H-1,2,4-triazol-3-one] was run?
A: > 7.00

Q: How did the pIC50 turn out when `O=c1n(Cc2c(F)cccc2F)cnn1-c1ccc(Oc2c(Cl)ccnc2N2CC3(CCOCC3)C2)cc1` [Example 673, 2-(4-((4-chloro-2-(7-oxa-2-azaspiro[3.5]nonan-2-yl)pyridin-3-yl)oxy)phenyl)-4-(2,6-difluorobenzyl)-2,4-dihydro-3H-1,2,4-triazol-3-one] was run?
A: < 5.00

Q: `CCOC1CN(c2ncc(F)c(Oc3ccc(-n4ncn(Cc5c(F)cccc5F)c4=O)cc3)c2F)C1` [Example 674, 4-(2,6-difluorobenzyl)-2-(4-((2-(3-ethoxyazetidin-1-yl)-3,5-difluoropyridin-4-yl)oxy)phenyl)-2,4-dihydro-3H-1,2,4-triazol-3-one] was tested. Which pIC50 did it give?
A: > 7.00

Q: With `CN(C)c1cc(C#N)ccc1Oc1ccc(-n2ncn(Cc3c(F)cccc3F)c2=O)cc1F` [Example 676, 4-(4-(4-(2,6-difluorobenzyl)-5-oxo-4,5-dihydro-1H-1,2,4-triazol-1-yl)-2-fluorophenoxy)-3-(dimethylamino)benzonitrile] as the molecule, how does the pIC50 read?
A: > 7.00

Q: `CN(C)c1ccccc1Oc1ccc(-n2nc(Cl)n(Cc3ccccc3)c2=O)cc1` [Example 677, 4-benzyl-5-chloro-2-(4-(2-(dimethylamino)phenoxy)phenyl)-2,4-dihydro-3H-1,2,4-triazol-3-one] was tested. Which pIC50 did it give?
A: 6.00 to 7.00

Q: How did the pIC50 turn out when `Nc1ccccc1Oc1ccc(-n2nc(Cl)n(Cc3ccccc3)c2=O)cc1` [Example 679, 2-(4-(2-aminophenoxy)phenyl)-4-benzyl-5-chloro-2,4-dihydro-3H-1,2,4-tirazol-3-one] was run?
A: > 7.00

Q: How did the pIC50 turn out when `O=c1n(Cc2c(F)cccc2F)cnn1-c1ccc(Oc2cc(N3CC4(C3)CN(C3CC3)C4)ncc2F)c(F)c1` [Example 680, 2-(4-((2-(6-cyclopropyl-2,6-diazaspiro[3.3]heptan-2-yl)-5-fluoropyridin-4-yl)oxy)-3-fluorophenyl)-4-(2,6-difluorobenzyl)-2,4-dihydro-3H-1,2,4-triazol-3-one] was run?
A: > 7.00

Same assay, conditions: Homo sapiens, HT-29, read-out: Activity (IC50 class)

Q: How did the pIC50 turn out when `Cc1sc(CCO)nc1Oc1ccc(-n2ncn(Cc3c(F)cccc3F)c2=O)cc1F` [Example 652, 4-[(2,6-difluorophenyl)methyl]-2-[3-fluoro-4-[2-(2-hydroxyethyl)-5-methyl-thiazol-4-yl]oxy-phenyl]-1,2,4-triazol-3-one] was run?
A: 6.00 to 7.00

From patent US20250179061A1 (SIRONAX LTD., priority 2022, published 2025)
